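Method: 48-hour compound exposure of cells in 96-well plates, five concentrations, linear interpolation of endpoints. The concentration for 50% growth inhibition is given as GI50.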 The source made the active and inactive calls. No stated cut-off is given here; in the data, active = GI50 up to about 1.1 µM and inactive = higher.
Columns and labels:
Test in all cases: NCI tumour cell line growth inhibition, 48 h
KM12 = test system: KM12
SW-620 = test system: SW-620
LOX IMVI = test system: LOX IMVI
Hs-578T = test system: Hs-578T
NCI-H522 = test system: NCI-H522
SK-OV-3 = test system: SK-OV-3
ACHN = test system: ACHN
HCT-15 = test system: HCT-15
NCI-H460 = test system: NCI-H460
SK-MEL-2 = test system: SK-MEL-2
OVCAR-5 = test system: OVCAR-5
K562 = test system: K562
CAKI-1 = test system: CAKI-1
RXF 393 = test system: RXF 393
SF-268 = test system: SF-268
UACC-257 = test system: UACC-257
BT-549 = test system: BT-549
NCI-H226 = test system: NCI-H226
MDA-MB-435 = test system: MDA-MB-435

SMILES | GI50 (KM12) | GI50 (SW-620) | GI50 (LOX IMVI) | GI50 (Hs-578T) | GI50 (NCI-H522) | GI50 (SK-OV-3) | GI50 (ACHN) | GI50 (HCT-15) | GI50 (NCI-H460) | GI50 (SK-MEL-2) | GI50 (OVCAR-5) | GI50 (K562) | GI50 (CAKI-1) | GI50 (RXF 393) | GI50 (SF-268) | GI50 (UACC-257) | GI50 (BT-549) | GI50 (NCI-H226) | GI50 (MDA-MB-435)
Cn1cc(S(=O)(=O)NC(=O)Nc2ccc(Cl)cc2)c2ccccc21 | 28.5 µM (inactive) | 50.6 µM (inactive) | 93.1 µM (inactive) | > 100 µM (inactive) | 24.5 µM (inactive) | 55.5 µM (inactive) | 25.4 µM (inactive) | 4.5 µM | 57.4 µM (inactive) | 54.7 µM (inactive) | 46.1 µM (inactive) | > 100 µM (inactive) | 15.5 µM (inactive) | > 100 µM (inactive) | > 100 µM (inactive) | > 100 µM (inactive) | > 100 µM (inactive) | 83.8 µM (inactive) | 52.1 µM (inactive)
Cn1c(=S)c2nc(SCCCc3ccccc3)[nH]c2n(C)c1=O | 19.5 µM (inactive) | 36.4 µM (inactive) | 27.5 µM (inactive) | > 100 µM (inactive) | 4.33 µM (inactive) | 42.2 µM (inactive) | 27.2 µM (inactive) | 29.8 µM | 7.14 µM (inactive) | 40.8 µM (inactive) | 20.7 µM (inactive) | 19.7 µM (inactive) | 20.9 µM (inactive) | 56.5 µM (inactive) | 32.5 µM (inactive) | 8.24 µM (inactive) | 45.1 µM (inactive) | 21.5 µM (inactive) | 23.2 µM (inactive)
Sc1nc2c(c(-c3nc(S)nc4c3CCCCCCCCCC4)n1)CCCCCCCCCC2 | > 100 µM (inactive) | > 100 µM (inactive) | > 100 µM (inactive) | > 100 µM (inactive) | > 100 µM (inactive) | > 100 µM (inactive) | > 100 µM (inactive) | > 100 µM | > 100 µM (inactive) | > 100 µM (inactive) | > 100 µM (inactive) | > 100 µM (inactive) | > 100 µM (inactive) | > 100 µM (inactive) | > 100 µM (inactive) | > 100 µM (inactive) | > 100 µM (inactive) | > 100 µM (inactive) | > 100 µM (inactive)
O=[N+]([O-])c1cc(F)ccc1S(=O)(=O)c1ccccc1 | > 10 µM (inactive) | > 10 µM (inactive) | > 10 µM (inactive) | > 10 µM (inactive) | 2.22 µM (inactive) | > 10 µM (inactive) | > 10 µM (inactive) | > 10 µM | > 10 µM (inactive) | > 10 µM (inactive) | > 10 µM (inactive) | > 10 µM (inactive) | > 10 µM (inactive) | > 10 µM (inactive) | > 10 µM (inactive) | > 10 µM (inactive) | > 10 µM (inactive) | > 10 µM (inactive) | > 10 µM (inactive)
CN1COCc2cc3cc4c(cc3nc21)OCCO4 | 41.5 µM (inactive) | > 100 µM (inactive) | > 100 µM (inactive) | 0.0452 µM (active) | > 100 µM (inactive) | > 100 µM (inactive) | > 100 µM (inactive) | > 100 µM | 44.8 µM (inactive) | > 100 µM (inactive) | > 100 µM (inactive) | > 100 µM (inactive) | 94.6 µM (inactive) | > 100 µM (inactive) | > 100 µM (inactive) | > 100 µM (inactive) | 87.3 µM (inactive) | > 100 µM (inactive) | > 100 µM (inactive)
COc1cc(/C=C2/SC(c3ccccc3)N(c3ccc(Cl)cc3)C2=O)cc(OC)c1OC (centres undefined) | 5.46 µM (inactive) | 57.4 µM (inactive) | 50.8 µM (inactive) | > 100 µM (inactive) | 18.3 µM (inactive) | 9.48 µM (inactive) | 4.35 µM (inactive) | 8.13 µM | 8 µM (inactive) | > 20.6 µM (inactive) | > 100 µM (inactive) | 0.244 µM (active) | > 51.2 µM (inactive) | 49.7 µM (inactive) | 19.5 µM (inactive) | 47.2 µM (inactive) | > 59 µM (inactive) | > 100 µM (inactive) | 0.436 µM (active)
